This assay has as its target T1, human cloned CHRM3 receptor (M3_CHO cells) (Homo sapiens, UniProt P20309).
T1 construct: expressed in transfected cells; host or cells: CHO-K1
Description: CHRM3 Ca++ Flux Assay (agonist mode, FDSS 7000EX). The format is cell-based. Particulars: for M3 FDSS PA / Emax: Percent Activity measured to EC100 of Carbachol; for EC50: agonist mode, geometric mean if tested more than once, read-out: M3 FDSS EC50; for Emax: read-out: M3 FDSS PA. The method, then:
The above examples were characterized by measuring the intracellular mobilization of Ca++ ions caused by signaling events mediated by the receptor. The Intra-cellular Calcium flux levels were captured by the highly sensitive Ca++ indicator, Calcium Assay Kit (BD Biosciences, Catalog Number 640178). The fluorescent activity from all receptors were monitored by the fluorescent imager, FDSS 7000EX (Hamamatsu) over a span of 3 minutes.
CHO-K1 cells stably expressing the human cloned CHRM3 receptor (M3_CHO cells) were grown and maintained in a monolayer culture with F12/HAM (Life Technologies) supplemented with 10% Fetal Bovine Serum, 1× Pen-Strep, and 0.4 mg/mL Geneticin in a humidified atmosphere (5% CO2) at 37° C. The cultures were grown to 80-9 0% confluency in T150 flasks (Corning) and washed with 1×DPBS and lifted with 0.05% Trypsin (Life Technologies). The cells were then spun (1K rpm, 3 minutes) and frozen using Recovery Cell Culture Freezing Media (Gibco Technologies). Cells were stored in liquid nitrogen and thawed a day before the assay. A similar procedure was used for cells stably expressing the human cloned CHRM5 receptor (M5_CHO).
Prior to the day of the assay, stable M3_CHO or M5_CHO cells were thawed and plated on Greiner 384 well black TC treated plates at 12K cells/well in F12/DMEM supplemented with 10% FBS (Hyclone) and kept overnight in a humidified atmosphere (5% CO2) at 37° C. The next day, cells were loaded with Ca^++ dye (BD Biosciences) using Loading Buffer (HBSS +Ca/+Mg, 20 mM HEPES, 2.5 mM Probenecid) and placed back in cell incubator for a minimum of 1 hour. After incubation, the dye was replaced with Assay Buffer (HBSS −Ca/−Mg, 20 mM HEPES, 2.5 mM Probenecid) and kept at room temperature in the dark before running on cell imager. The FDSS 7000EX (Hamamatsu) was used to acquire Ca^++ traces from cells treated with 11 point dose response of compounds in triplicate in order to generate dose response curves in agonist mode. All compounds were serially diluted in DMSO then prepared in Assay Buffer for Ca^++ flux studies. The dose response curves were generated from the average of triplicate wells obtained from each data point and used a non-linear regression of four parameter dose response algorithm. The Percent Activity (PA) was measured to EC100 of Carbachol.

Experimental findings from patent publication US12122761B2, “2-azaspiro[3.4]octane derivatives as M4 agonists” (NOVARTIS AG, priority 2019, dated 2024) are described below.

One may read the EC50 as the concentration giving half of the maximal effect.

T1 sequence (P20309 whole entry): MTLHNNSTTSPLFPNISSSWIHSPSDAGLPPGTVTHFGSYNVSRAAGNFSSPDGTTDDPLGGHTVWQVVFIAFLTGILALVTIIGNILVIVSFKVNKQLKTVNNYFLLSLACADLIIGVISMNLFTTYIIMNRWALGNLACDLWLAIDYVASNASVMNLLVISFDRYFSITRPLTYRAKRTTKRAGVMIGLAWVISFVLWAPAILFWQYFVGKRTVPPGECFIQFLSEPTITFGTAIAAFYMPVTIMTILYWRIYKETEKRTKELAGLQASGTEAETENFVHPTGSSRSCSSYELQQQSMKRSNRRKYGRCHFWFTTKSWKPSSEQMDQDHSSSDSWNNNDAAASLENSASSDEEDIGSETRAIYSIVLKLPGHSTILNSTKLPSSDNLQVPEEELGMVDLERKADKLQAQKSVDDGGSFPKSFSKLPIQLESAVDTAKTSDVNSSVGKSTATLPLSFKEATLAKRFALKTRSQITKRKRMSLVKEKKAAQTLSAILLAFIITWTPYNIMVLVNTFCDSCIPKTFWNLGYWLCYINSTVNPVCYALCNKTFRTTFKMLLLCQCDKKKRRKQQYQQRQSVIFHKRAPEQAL

Turning to `O=C(N1CC2(CC[C@@H](N3CCC(c4ccccc4OCC4CCOCC4)CC3)C2)C1)C1(F)CC1` (single isomer, unassigned) [Example 7Q, (R)-(1-fluorocyclopropyl)(6-(4-(2-((tetrahydro-2H-pyran-4-yl)methoxy)phenyl)piperidin-1-yl)-2-azaspiro[3.4]octan-2-yl)methanone or (S)-(1-fluorocyclopropyl)(6-(4-(2-((tetrahydro-2H-pyran-4-yl)methoxy)phenyl)piperidin-1-yl)-2-azaspiro[3.4]octan-2-yl)methanone], the “M3 FDSS PA” value was determined as 0% and the half-maximal effective concentration (EC50) is above 25 µM.
The corresponding values for `OC1CCC(c2ccccc2C2CCN([C@@H]3CCC4(C3)CN(c3nnco3)C4)CC2)CC1` (single isomer, unassigned) [Example 2O, (1s,4r)-4-(2-(1-((R)-2-(1,3,4-oxadiazol-2-yl)-2-azaspiro[3.4]octan-6-yl)piperidin-4-yl)phenyl)cyclohexan-1-ol or (1r,4r)-4-(2-(1-((R)-2-(1,3,4-oxadiazol-2-yl)-2-azaspiro[3.4]octan-6-yl)piperidin-4-yl)phenyl)cyclohexan-1-ol] are 0% and above 25 µM.
Take `COc1ccccc1C1CCN([C@@H]2CCC3(C2)CN(c2cnccn2)C3)CC1` [Example 5H, (R)-6-(4-(2-methoxyphenyl)piperidin-1-yl)-2-(pyrazin-2-yl)-2-azaspiro[3.4]octane]: the Emax was determined as 0% and the EC50 was above 25 µM.
The corresponding values for `COc1ccccc1C1CCN([C@@H]2CCC3(C2)CN(c2cccnn2)C3)CC1` [Example 5O, (R)-6-(4-(2-methoxyphenyl)piperidin-1-yl)-2-(pyridazin-3-yl)-2-azaspiro[3.4]octane] are 0% and above 25 µM.
In the case of `COc1ccccc1C1CCN([C@@H]2CCC3(C2)CN(c2cncnc2)C3)CC1` [Example 5A, (R)-6-(4-(2-methoxyphenyl)piperidin-1-yl)-2-(pyrimidin-5-yl)-2-azaspiro[3.4]octane], the Emax amounted to 0% and the EC50 is above 25 µM.
Turning to `O=C(N1CC2(CC[C@@H](N3CCC(c4ccccc4OC(F)(F)F)CC3)C2)C1)C1(F)CC1` (single isomer, unassigned) [Example 9A, (R)-(1-fluorocyclopropyl)(6-(4-(2-(trifluoromethoxy)phenyl)piperidin-1-yl)-2-azaspiro[3.4]octan-2-yl)methanone or (S)-(1-fluorocyclopropyl)(6-(4-(2-(trifluoromethoxy)phenyl)piperidin-1-yl)-2-azaspiro[3.4]octan-2-yl)methanone], the “M3 FDSS PA” value is listed as 0% and the concentration for a half-maximal effect (EC50) was above 25 µM.
The corresponding values for `COc1ccc(Cl)cc1C1CCN([C@H]2CCC3(C2)CN(C(=O)C2(F)CC2)C3)CC1` (single isomer, unassigned) [Example 8B, (S)-(6-(4-(5-chloro-2-methoxyphenyl)piperidin-1-yl)-2-azaspiro[3.4]octan-2-yl)(1-fluorocyclopropyl)methanone or (R)-(6-(4-(5-chloro-2-methoxyphenyl)piperidin-1-yl)-2-azaspiro[3.4]octan-2-yl)(1-fluorocyclopropyl)methanone] are 0% and above 25 µM.
The corresponding values for `FC(F)(F)Oc1ccccc1C1CCN([C@@H]2CCC3(C2)CN(c2nncs2)C3)CC1` (single isomer, unassigned) [Example 10M, (R)-2-(6-(4-(2-(trifluoromethoxy)phenyl)piperidin-1-yl)-2-azaspiro[3.4]octan-2-yl)-1,3,4-thiadiazole or (S)-2-(6-(4-(2-(trifluoromethoxy)phenyl)piperidin-1-yl)-2-azaspiro[3.4]octan-2-yl)-1,3,4-thiadiazole] are 0% and above 25 µM.
The corresponding values for `O=C(N1CC2(CC[C@@H](N3CCC(c4cc(F)ccc4OC4CC5(COC5)C4)CC3)C2)C1)C1(F)CC1` (single isomer, unassigned) [Example 11A, (R)-(6-(4-(2-((2-oxaspiro[3.3]heptan-6-yl)oxy)-5-fluorophenyl)piperidin-1-yl)-2-azaspiro[3.4]octan-2-yl)(1-fluorocyclopropyl)methanone or (S)-(6-(4-(2-((2-oxaspiro[3.3]heptan-6-yl)oxy)-5-fluorophenyl)piperidin-1-yl)-2-azaspiro[3.4]octan-2-yl)(1-fluorocyclopropyl)methanone] are 0% and above 25 µM.
For `O=C(N1CC2(CC[C@@H](N3CCC(c4ccccc4OCC4CC4)CC3)C2)C1)C1(F)CC1` (single isomer, unassigned) [Example 7T, (R)-(6-(4-(2-(cyclopropylmethoxy)phenyl)piperidin-1-yl)-2-azaspiro[3.4]octan-2-yl)(1-fluorocyclopropyl)methanone or (R)-(6-(4-(2-(cyclopropylmethoxy)phenyl)piperidin-1-yl)-2-azaspiro[3.4]octan-2-yl)(1-fluorocyclopropyl)methanone], the “M3 FDSS PA” value is 0% and the EC50 is above 25 µM.
On the same counts, the results for `COc1ccccc1C1CCN([C@H]2CCC3(C2)CN(c2ncco2)C3)CC1` (single isomer, unassigned) [Example 10J, (S)-2-(6-(4-(2-methoxyphenyl)piperidin-1-yl)-2-azaspiro[3.4]octan-2-yl)oxazole or (R)-2-(6-(4-(2-methoxyphenyl)piperidin-1-yl)-2-azaspiro[3.4]octan-2-yl)oxazole] are 0% and above 25 µM.
For the compound `COC(C)(C)CCOc1ccccc1C1CCN([C@@H]2CCC3(C2)CN(C(=O)C2(F)CC2)C3)CC1` (single isomer, unassigned) [Example 7FF, (R)-(1-fluorocyclopropyl)(6-(4-(2-(3-methoxy-3-methylbutoxy)phenyl)piperidin-1-yl)-2-azaspiro[3.4]octan-2-yl)methanone or (S)-(1-fluorocyclopropyl)(6-(4-(2-(3-methoxy-3-methylbutoxy)phenyl)piperidin-1-yl)-2-azaspiro[3.4]octan-2-yl)methanone], the “M3 FDSS PA” value worked out at 0% and the concentration giving a half-maximal response (EC50) was above 25 µM.
Turning to `Cc1ccc(N2CC3(CC[C@@H](N4CCC(c5ccccc5O[C@@H]5CCOC5)CC4)C3)C2)cn1` [Example 5L, (R)-2-(6-methylpyridin-3-yl)-6-(4-(2-(((R)-tetrahydrofuran-3-yl)oxy)phenyl)piperidin-1-yl)-2-azaspiro[3.4]octane], the Emax was 0% and the EC50 is 11.7 µM.
In the case of `FC(F)(F)Oc1ccccc1C1CCN([C@@H]2CCC3(C2)CN(c2ncco2)C3)CC1` (single isomer, unassigned) [Example 10K, (R)-2-(6-(4-(2-(trifluoromethoxy)phenyl)piperidin-1-yl)-2-azaspiro[3.4]octan-2-yl)oxazole or (S)-2-(6-(4-(2-(trifluoromethoxy)phenyl)piperidin-1-yl)-2-azaspiro[3.4]octan-2-yl)oxazole], the “M3 FDSS PA” value was 0% and the EC50 is above 25 µM.
Consider `Cc1ncncc1N1CC2(CC[C@@H](N3CCC(c4ccccc4OCC(C)(C)O)CC3)C2)C1` [Example 5C, (R)-2-methyl-1-(2-(1-(2-(4-methylpyrimidin-5-yl)-2-azaspiro[3.4]octan-6-yl)piperidin-4-yl)phenoxy)propan-2-ol], for which the Emax worked out at 0% and the EC50 was above 25 µM.
The corresponding values for `COc1ccccc1C1CCN([C@@H]2CCC3(C2)CN(c2cnc(C)nc2)C3)CC1` [Example 5E, (R)-6-(4-(2-methoxyphenyl)piperidin-1-yl)-2-(2-methylpyrimidin-5-yl)-2-azaspiro[3.4]octane] are 0% and above 25 µM.
In the case of `O=C(N1CC2(CC[C@@H](N3CCC(c4ccccc4C4(O)CCOCC4)CC3)C2)C1)C1(F)CC1` (single isomer, unassigned) [Example 9G, (R)-(1-fluorocyclopropyl)(6-(4-(2-(4-hydroxytetrahydro-2H-pyran-4-yl)phenyl)piperidin-1-yl)-2-azaspiro[3.4]octan-2-yl)methanone or (S)-(1-fluorocyclopropyl)(6-(4-(2-(4-hydroxytetrahydro-2H-pyran-4-yl)phenyl)piperidin-1-yl)-2-azaspiro[3.4]octan-2-yl)methanone], the “M3 FDSS PA” value was 0% and the EC50 was above 25 µM.
